Columns and labels:
[1] = self-assembly into nanoparticles, TEM and DLS; type: physicochemical; settings: probe solution without legumain enzyme
Method: To accurately evaluate the efficiency of the R6‐AAN‐alkyne‐nitrile nanoprobe, time‐dependent Raman measurements were performed (Figure 2g), where the ratio of alkyne/nitrile peak intensity was used as an indicator of the reaction progress. We found as the reaction progressed the alkyne/nitrile peak intensity increased from 0.22±0.01 to 4.4±0.12 and plateaued at a final value of 4.6±0.12 indicating almost complete conversion of nanoSABER to alkyne‐dimer within 3 h. […] To further get insight into the structural arrangements of the self‐assembled dimers, transmission electron microscopy (TEM) was performed. […]
All materials were sourced from Sigma, Chem Impex, or Thermo Fisher and used as received, with purification performed only when explicitly indicated. […] The mass of synthesized peptides was determined using Bruker AutoFLex III Maldi‐TOF or Voyager DE‐STR MALDI‐TOF mass spectrometers. ^1H NMR spectra were obtained on a 400 MHz Bruker Avance at 27 °C in dimethylsulfoxide (DMSO)‐d6. Ultraviolet–visible (UV–Vis) absorption spectra were recorded with a Perkin Elmer Lambda 950 UV–Vis spectrophotometer. […] High‐resolution fluorescence imaging was performed using a Leica SP8 confocal microscope equipped with a 63× oil‐immersion objective. The size distribution of nanoparticles was determined using dynamic light scattering (DLS) (Zetasizer Nano, Malvern Instruments) at room temperature (RT). […]

[2] = in vivo toxicity and biocompatibility; design: species or system healthy female rag2 mice; settings: 7 days after IV 100 µL, 0.0125 mmol kg-1, n = 3
Description: The in vivo toxicity and biocompatibility of nanoSABER were investigated following IV injection of nanoSABER in mice (Figure 7a). […] In addition, we examined various common indicators related to renal function (Figure 7c), liver function (Figure 7d), and bone marrow function (Figure 7e). […] These findings further confirm the biocompatibility and safety of the nanoSABER for in vivo targeted tumor imaging.
Figure 7 a) Schematic illustration of in vivo toxicity and biocompatibility assessment 7 days after IV injection of nanoSABER. b) Histology of major organs excised and stained with H&E for PBS (control) or nanoSABER injection. c) Kidney function test for blood plasma and urine. d) Liver function test for the enzymes aspartate transaminase (AST), alkaline phosphatase (ALP), and alanine transaminase (ALT) in blood plasma. e) Bone marrow function test for red blood cells (RBCs), white blood cells (WBCs), and platelets in blood plasma. All data are presented as mean ± standard deviation, n = 3. p‐Values of <0.001 (***), 0.001 to 0.01 (**), and 0.01 to 0.05 (*) were considered significant.
All animal experiments were carried out under an approved IACUC protocol. The biocompatibility of nanoSABER was evaluated in vivo, using healthy female rag2 mice that were divided into two groups (n = 3 each). […]

## Ac‐Arg‐Arg‐Arg‐Arg‐Arg‐Arg‐Ala‐Ala‐Asn‐Cys(StBu)‐Pra‐Lys‐CBT [nanoSABER]
[1]
  nanoparticles in TEM before addition of legumain: did not show any detectable nanoparticles
[2]; compared with PBS group
  renal, liver and bone marrow function parameters: fell within a normal reference range
[2]; heart, liver, lung, kidney, spleen
  H&E histology of major organs: no signs of histopathological damage or tissue inflammation

Reference: paper PMC10700673, “A Smart Intracellular Self‐Assembling Bioorthogonal Raman Active Nanoprobe for Targeted Tumor Imaging” (Advanced Science, 2023)
